“Also recorded” adds a separate entry of the source.

For series [1], the system named is E. coli serotype O1:H7 (APEC). The series can be described thus: Host range spot assay. The class given is cell-based, Escherichia coli. Also on record: key: — indicates no lysis at all; 0.1-1.0 indicates that the phage is semi-lytic; 1.1-2.0 indicates moderate lysis of bacteria; 2.1-3.0 indicates complete lysis of bacteria and formation of a transparent, circular clearing on the bacterial lawn. The following applies: E. coli serotype O1:H7, scale 0-3. The protocol: (§1) The host range of each bacteriophage type was determined by performing spot assays using each of the ten distinct APEC serotypes mentioned above. Spot assays were performed as known in the art (Barrow et al., 1998, Clinical and Diagnostic Laboratory Immunology, 5 (3), 294-298). 100 μL aliquots of log-phase bacterial cultures were combined with 67.5 μL 1M CaCl2) and 4 mL LB overlay, mixed briefly, and poured over LB agar plates. Once the overlay had solidified, 5 μL aliquots of individual phage types were applied (i.e., spotted) onto the plates, and plates were incubated at 37° C. overnight. Plates were assessed for clearings the following day and the degree of lysis was measured using a four-point scale in which 0 indicated no lysis, 1.0 indicated some lysis, 2.0 indicated moderate lysis, and 3 indicated complete lysis. Spot assays were conducted in triplicate for each phage and APEC strain.

In series [2] the test system is ten APEC strains. The series can be described thus: Host range (lytic spectrum) over all ten APEC strains, spot assays. Type of series: cell-based, Escherichia coli. The settings on record: for number of different APEC strains lysed: of ten APEC strains; for degree of lysis against the APEC strains lysed: over the strains that the phage lyses, scale 0-3. The method, then:
as §1

Series [3] has as its system host APEC E. coli O6:H31. The series can be described thus: Lytic capacity of individual phages in liquid media (OD600). The following applies: for concentration of APEC (OD600) versus untreated APEC cultures: 2, 3, and 4 hours post-treatment; for OD600 reading of phage-treated APEC culture: after 1 hour of incubation, MOI 10, 37° C., untreated AHP host OD600=0.497. Type of series: cell-based, Escherichia coli. The protocol:
(§2) Individual APEC strains (100 μL) were inoculated into 15 mL LB media in separate tubes (two tubes per strain) and incubated at 37° C. in a shaking incubator. Once the bacterial cultures reached an OD600 0.18-0.22, the individual bacteriophage types (MOI=10) were added to one tube from the pair of tubes inoculated with their respective host APEC strain. The other tubes of bacterial culture were left untreated and served as negative controls. Bacterial growth was assessed by measuring absorbance (OD600) in all tubes every hour for 4 hours. The experiment was repeated three times.
(§3) The six APEC strains were individually inoculated into LB broth and incubated at 37° C. until they reached log-phase growth. Phages were added to the log-phase culture of their APEC host at an MOI of 10, and subsequent bacterial concentrations were determined by measuring the absorbance (OD600) of the culture at 1, 2, 3, and 4 hours post-phage application. One flask containing only bacterial culture was included as a negative control. Additional flasks containing both bacterial cultures and antibiotics (specifically, gentamycin sulfate, kanamycin sulfate, nalidixic acid, or chloramphenicol) at their respective minimum inhibitory concentrations (National Antibiotic Resistance Monitoring System (NARMS) 2019, antibiotics tested by NARMS) were included as positive controls. These lytic capacity experiments were conducted in triplicate for each of the phage types and their respective host APEC strains.

Series [4] in a line: Phage stability in simulated gastric fluid (SGF). The class given is physicochemical. The following applies: for phage concentration, unencapsulated, SGF-exposed: SGF pH 2.5 with pepsin; for phage concentration, unencapsulated, SGF-exposed / phage concentration, unencapsulated, PBS-treated: 41° C.; for phage concentration lower in SGF-exposed than in PBS-exposed samples: 90 minutes of exposure; for phage concentration, unencapsulated, PBS-treated: 1×PBS control. The protocol: The stability of bacteriophages in gastric environments was tested by exposing both encapsulated and unencapsulated bacteriophages to simulated gastric fluid (SGF; 0.32% pepsin (w/v) in 0.2% NaCl; pH 2.5) and to 1×PBS (Moghtader et al., 2016). In this experiment, unencapsulated phages (0.5 mL, in concentrations ranging from 1×10^9 to 4×10^8 PFU/mL depending on the phage type) were added to 4.5 mL of either SGF or PBS (5 replicates per treatment) and incubated at 41° C. This temperature was chosen as it is a typical internal temperature for chickens. Encapsulated phages (0.5 g, in concentrations ranging from 2×10^9 to 2×10^8 PFU/mL depending on the phage type) were also added to 4.5 mL of either SGF or PBS (5 replicates per treatment) and incubated at 41° C. Aliquots (100 μL) were collected from each unencapsulated phage sample after 5, 15, 30, 60, and 90 minutes of exposure to SGF or PBS. These aliquots were serially diluted, and phage concentrations were measured by standard plaque assay. At 15, 30, 60, and 90 minutes post-SGF or PBS exposure, microencapsulated phages were washed with SM buffer to remove residual SGF or PBS and then dissolved in a dissolving solution. Aliquots of the dissolved microcapsules were serially diluted and phage concentrations were measured by standard plaque assay. This experiment was conducted in triplicate for each phage type. Samples containing SGF and unencapsulated bacteriophages were serially diluted without washing and phage concentrations were measured by standard plaque assay as described above. Concentrations of viable phages after exposure to SGF or PBS for a given length of time were then compared.

The test system of series [5] is host APEC E. coli O2:H4. The series can be described thus: Lytic capacity of individual phages in liquid media (OD600). Type of series: cell-based, Escherichia coli. The following applies: for OD600 reading of phage-treated APEC culture: after 1 hour of incubation, MOI 10, 37° C., untreated host OD600=0.454. The protocol: as §2, §3
Series [6] can be described thus: Phage stability in simulated intestinal fluid (SIF). Type of series: physicochemical. The following applies: unencapsulated phage, SIF pH 7, 41° C., 1, 2, and 3 hours. The method, then:
To assess phage stability in intestinal fluids, 0.5 mL of unencapsulated phages were added to 4.5 mL of simulated intestinal fluid (SIF; 0.1% (w/v) bile salt and 0.4% (w/v) pancreatin in 50 mM KH2PO4; pH 7) and incubated at 41° C. As a negative control, 0.5 mL of unencapsulated phages were added to 4.5 mL of 1×PBS and incubated at 41° C. Aliquots (100 μL) were collected from each sample after 1, 2, and 3 hours of exposure to SIF. These aliquots were serially diluted and phage concentrations were measured by standard plaque assay as described above. The experiment was conducted in triplicate for each phage type. Concentrations of viable phages after exposure to SIF or PBS at a given time point were then compared.

The mark [7] stands for this setting: 1, 2, 3, and 4 hours post-treatment, MOI 10, P<0.05.

For the substance Escherichia phage vB_Eco_AHC, the degree of lysis result in series [1] is “—”. The “number of different APEC strains lysed” value in series [2] was “six and at least two”. Moreover, the “concentration of APEC (OD600) versus untreated APEC cultures” value in series [3] (MOI 10, P<0.05) is “Significantly lower”. For the same substance, the “OD600 reading of phage-treated APEC culture” value (“OD600 reading” for short) in series [3] is reported as “did not significantly differ”. Besides, the “phage concentration, encapsulated, PBS-exposed” value in series [4] (encapsulated phage, 60 minutes) was 8.31 log10 PFU/mL; in series [4] (encapsulated phage, 90 minutes), 8.23 log10 PFU/mL. For the same substance, the “phage concentration, encapsulated, SGF-exposed” value in series [4] (encapsulated phage, 60 minutes) is on record as 8.13 log10 PFU/mL; in series [4] (encapsulated phage, 90 minutes), 7.15 log10 PFU/mL. Moreover, the “phage concentration, unencapsulated, SGF-exposed” value in series [4] (unencapsulated phage) is listed as “could not be detected; also recorded: not detectable”.
Turning to Escherichia phage vB_Eco_AHP, the degree of lysis in series [1] worked out at 3.0. Moreover, in series [2], the “number of different APEC strains lysed” value was “four and at least two”; the “degree of lysis against the APEC strains lysed” value is recorded as 2.7-3.0. Also, the “concentration of APEC host versus APEC cultures incubated without phages” value in series [3] (setting [7]) is given as “significantly lower”. Moreover, the “OD600 reading” value in series [3] worked out at 0.284. In series [4] (encapsulated phage, 60 minutes), the “phage concentration, encapsulated, PBS-exposed” value is 9.23 log10 PFU/mL and the “phage concentration, encapsulated, SGF-exposed” value is 9.21 log10 PFU/mL. For the same substance, in series [4] (encapsulated phage, 90 minutes), the “phage concentration, encapsulated, PBS-exposed” value is on record as 9.19 log10 PFU/mL and the “phage concentration, encapsulated, SGF-exposed” value was 8.12 log10 PFU/mL. In addition, the “phage concentration lower in SGF-exposed than in PBS-exposed samples” value (“phage concentration lower” for short) in series [4] (unencapsulated phage) was 2.35 log10 PFU/mL. Moreover, the “phage concentration SGF-exposed versus PBS-exposed” value in series [4] (unencapsulated phage, after 5 and 15 minutes of exposure, P>0.05) is “No significant differences”. In series [4] (unencapsulated phage, after 30, 60, and 90 minutes of exposure, P<0.05), the “phage concentration SGF-exposed versus PBS-exposed” value is “significantly lower”.
On to Escherichia phage vB_Eco_AKA, for which the degree of lysis result in series [1] is recorded as “—”. Also, the “number of different APEC strains lysed” value in series [2] was “six and at least two”. Further, the “concentration of APEC (OD600) versus untreated APEC cultures” value in series [3] (MOI 10, P<0.05) is “Significantly lower”. For the same substance, the “OD600 reading” value in series [3] is listed as “did not significantly differ”. Besides, the “phage concentration, encapsulated, PBS-exposed” value in series [4] (encapsulated phage, 60 minutes) was 8.27 log10 PFU/mL; in series [4] (encapsulated phage, 90 minutes), 8.22 log10 PFU/mL. Further, the “phage concentration, encapsulated, SGF-exposed” value in series [4] (encapsulated phage, 60 minutes) is 8.17 log10 PFU/mL; in series [4] (encapsulated phage, 90 minutes), 7.3 log10 PFU/mL. Besides, the “phage concentration, unencapsulated, SGF-exposed” value in series [4] (unencapsulated phage) was “could not be detected; also recorded: not detectable”.
Take Escherichia phage vB_Eco_MIA: the degree of lysis result in series [1] is recorded as “—”. Besides, in series [2], the “number of different APEC strains lysed” value was “six and at least two”. Also, the “concentration of APEC (OD600) versus untreated APEC cultures” value in series [3] (MOI 10, P<0.05) is given as “Significantly lower”. In series [3], the “OD600 reading” value is given as “did not significantly differ”. The “phage concentration, encapsulated, PBS-exposed” value is 8.27 log10 PFU/mL in series [4] (encapsulated phage, 60 minutes) and 8.27 log10 PFU/mL in series [4] (encapsulated phage, 90 minutes). Moreover, the “phage concentration, encapsulated, SGF-exposed” value in series [4] (encapsulated phage, 60 minutes) was 8.14 log10 PFU/mL; in series [4] (encapsulated phage, 90 minutes), 7.34 log10 PFU/mL. The “phage concentration, unencapsulated, SGF-exposed” value in series [4] (unencapsulated phage) is “could not be detected; also recorded: not detectable”.
For Escherichia phage vB_Eco_MP_1 [MP1], the degree of lysis result in series [1] is recorded as “—”. Besides, in series [2], the “number of different APEC strains lysed” value was “two and at least two”; the “degree of lysis against the APEC strains lysed” value is given as 2.7. Also, the “OD600 reading” value in series [5] is listed as 0.101. Besides, in series [4] (encapsulated phage), the “phage concentration lower” value was 0.97 log10 PFU/mL. In addition, in series [4] (encapsulated phage, 60 minutes), the “phage concentration, encapsulated, PBS-exposed” value is on record as 9.23 log10 PFU/mL and the “phage concentration, encapsulated, SGF-exposed” value is on record as 9.09 log10 PFU/mL. Moreover, in series [4] (encapsulated phage, 90 minutes), the “phage concentration, encapsulated, PBS-exposed” value was 9.19 log10 PFU/mL and the “phage concentration, encapsulated, SGF-exposed” value is recorded as 8.11 log10 PFU/mL. Also, in series [4] (unencapsulated phage), the “phage concentration, unencapsulated, PBS-treated” value is 9.27 log10 PFU/mL; the “phage concentration lower” value is given as 3.9 log10 PFU/mL; the “phage concentration, unencapsulated, SGF-exposed” value is recorded as 8.71 log10 PFU/mL. The “phage concentration SIF-exposed versus PBS-exposed” value in series [6] was “significantly lower”.
Regarding Escherichia phage vB_Eco_MP_2 [MP2], in series [1], the degree of lysis result is “—”. In series [2], the “number of different APEC strains lysed” value was “two and at least two”; the “degree of lysis against the APEC strains lysed” value is on record as 3.0. Moreover, the “concentration of APEC host versus APEC cultures incubated without phages” value in series [5] (setting [7]) is on record as “significantly lower”. Further, in series [5], the “OD600 reading” value is given as 0.328. In addition, the “phage concentration lower” value in series [4] (encapsulated phage) is 0.74 log10 PFU/mL. Moreover, in series [4] (encapsulated phage, 60 minutes), the “phage concentration, encapsulated, PBS-exposed” value is 9.15 log10 PFU/mL and the “phage concentration, encapsulated, SGF-exposed” value is reported as 9.11 log10 PFU/mL. For the same substance, in series [4] (encapsulated phage, 90 minutes), the “phage concentration, encapsulated, PBS-exposed” value is recorded as 9.07 log10 PFU/mL and the “phage concentration, encapsulated, SGF-exposed” value is reported as 8.41 log10 PFU/mL. Also, in series [4] (unencapsulated phage), the “phage concentration, unencapsulated, PBS-treated” value was 9.05 log10 PFU/mL; the “phage concentration lower” value is 4.5 log10 PFU/mL; the “phage concentration, unencapsulated, SGF-exposed” value is reported as 7.72 log10 PFU/mL.

Values taken from US20250041367A1, “BACTERIOPHAGES AND USE THEREOF FOR THE TREATMENT OR PREVENTION OF INFECTION CAUSED BY E. COLI” (Purdue Research Foundation, priority 2023, published 2025).
